Source: patent US6590123B2, “Aminobenzoic acid derivatives having anti-tumorigenic activity, methods of making and using the same” (Mount Sinai School of Medicine of New York University, priority 1998, dated 2003)
Values after ≈ are worked out from the molar mass of the structure shown.

Experiments:
[1] = system: Human peripheral blood lymphocytes (PBL); experiment: Block of mitosis, morphology by microscopy; format: cell-based; set-up: key to Block of Mitosis: +Block of mitosis was observed; −no mitotic blocking
Procedure: (§1) All cell lines, with the exception of human SP cells, a biphenotypic leukemic cell line (reference 10 & 11), were obtained from the American Tissue Culture Collection (Rockville, Md.) and were cultured under conditions recommended by the vendor. EL4 murine leukemia lymphoma (as suspension) and B16 mouse melanoma (as monolayer) cell lines were cultivated in RPMI-1640 medium supplemented with 10% fetal bovine serum (FBS), penicillin (250 μ/ml) and streptomycin (250 μml); MOT, a non-tumor proliferative myocardial cell line from rat and NIH 3T3, a non-malignant and proliferative fibroblast cell line from mouse were both cultured as monolayers in Dulbecco's Modified Eagle's Medium with 10% heat inactivated calf serum. CEM, a human acute T-cell leukemic cell line, was cultured as a suspension in Iscove's Dulbecco's Medium with 10% heat inactivated fetal calf serum and antibiotics. PC-3 cells, a human prostate cancer line, was cultured as monolayers in RPMI-1640 with 10% FBS. SP cells were cultured in Minimum Eagle's Medium plus 10% FBS. Human peripheral blood lymphocytes (PBL) were isolated from whole blood of healthy individuals by Ficoll-Hypaque gradient method. Isolated PBL were maintained in RPMI-1640 in the presence of 10% homologous plasma at 37° C. All cells were incubated at 37° C. in 5% C02. Cells in exponential growth were used.
(§2) Cell samples on slides were prepared by a Cytospin centrifuge (Shandon Southern Products Ltd, England) at 700 g for 5 min. The slides were air dried, fixed in methanol and stained with Giemsa (Harleco, N.J.) at room temperature for 15 min. Alterations of nuclei, membranes and morphological features were observed by light microscopy. Cells in mitotic phase were recognized by the appearance of their chromosomes dispersed in the cytoplasm, and by the disappearance of nuclear membrane. Apoptotic-cells were identified using previously defined criteria, i.e., shrinkage in cell size, chromatin condensation and fragmentation of the nucleus into discrete masses (references 2 & 3). Necrotic cells were differentiated from apoptotic cells by observing swollen cytoplasm and the disappearance of cell membrane prior to the destruction of the nucleus.

B16 mouse melanoma [2] = experiment: Block of mitosis, morphology by microscopy; format: cell-based; set-up: key to Block of Mitosis: +Block of mitosis was observed; −no mitotic blocking
Procedure: as §1, §2

MOT myocardial cell line = experiment: Block of mitosis, morphology by microscopy; format: cell-based, rat; set-up: key to Block of Mitosis: +Block of mitosis was observed; −no mitotic blocking
Procedure: as §1, with “used. […]” for “used.”

[3] = system: mitotic spindles (β-tubulin) in CEM cells; experiment: Immunofluorescent detection of mitotic spindles; format: cell-based, human; conditions: for Antimicrotubule: CEM cells, 0.025 μg/ml, immunofluorescent staining
Procedure: […] After incubation, cells were washed twice in PBS. Cell pellets were resuspended in drug-free medium and incubated for 48 hr at 37° C. Cell viability, morphology, mitotic spindles, cell cycle distribution and apoptosis were determined 24 hr and 48 hr post pulse exposure.
CEM cells incubated in the absence or presence of 3-BAABU were collected and centrifuged in a Cytospin at 700 g for 5 min. The slides were air dried and fixed with methanol for 20 min at −20° C. The slides were incubated in PBS containing. 1% BSA at 37° C. for 30 min. After washing with PBS for 3 min, cells on the slides were covered with 30 μl anti-human β-tubulin monoclonal antibody (4 μg/ml) (Accurate Antibody, Westbury, N.Y.) and placed in a humid chamber at room temperature for 60 min. The slides were washed three times for 3 min each in PBS followed by staining with 10 μl FITC labeled goat anti-mouse antibody (Coulter, Hialeah, Fla.) in a humid chamber at room temperature for 60 min. After washing in, PBS, the immunofluorescent stained cells were visualized under a fluorescence microscope (Model MC 63, Zeiss, Germany).

L1210 Leukemia = experiment: Survival of mice implanted i.p. with L1210 Leukemia; format: in vivo
Text: Both control and treated animals were examined for ascitic tumor burden daily for 35 days.

PC-3 cells [4] = experiment: Cytotoxicity, ID50 and ID90 (monolayer culture); format: cell-based; conditions: PC-3, Human Prostate Cancer, 48 hr
Procedure: as §1, with “Isolated PBL were maintained in RPMI-1640 in the presence of 10% homologous plasma at 37° C. All cells were incubated at 37° C. in 5% C02. Cells in exponential growth were used.” left out
(§3) The ID50 and ID90 was determined in duplicate in every set of experiments, and each experiment was repeated 3 times under identical conditions. […]

B16 mouse melanoma [5] = experiment: Cytotoxicity, ID50 and ID90 (monolayer culture); format: cell-based; conditions: B16, Murine melanoma, 48 hr
Procedure: as §1, with “Isolated PBL were maintained in RPMI-1640 in the presence of 10% homologous plasma at 37° C. All cells were incubated at 37° C. in 5% C02. Cells in exponential growth were used.” left out
as §3

[6] = system: EL4 murine leukemia lymphoma; experiment: Cytotoxicity, ID50 and ID90 by trypan blue exclusion; format: cell-based; conditions: 48 hr
Procedure: as §1, with “PC-3 cells, a human prostate cancer line, was cultured as monolayers in RPMI-1640 with 10% FBS. SP cells were cultured in Minimum Eagle's Medium plus 10% FBS. Human peripheral blood lymphocytes (PBL) were isolated from whole blood of healthy individuals by Ficoll-Hypaque gradient method. Isolated PBL were maintained in RPMI-1640 in the presence of 10% homologous plasma at 37° C. All cells were incubated at 37° C. in 5% C02. Cells in exponential growth were used.” left out
(§4) Cells in suspension culture were seeded into 96-well microplates (Falcon, Oxnard, Calif.) at 10^5 cell per well, followed, by treatment with 0-10 μg/ml of the candidate compounds for 48 hr at 37° C. with total volume of 250 μl per well. Cell viability was assessed by trypan blue exclusion.
as §3

SP cells [7] = experiment: as above; format: cell-based; conditions: Human MDS, 48 hr
Procedure: as §1, with “PC-3 cells, a human prostate cancer line, was cultured as monolayers in RPMI-1640 with 10% FBS. SP cells were cultured in Minimum Eagle's Medium plus 10% FBS. Human peripheral blood lymphocytes (PBL) were isolated from whole blood of healthy individuals by Ficoll-Hypaque gradient method. Isolated PBL were maintained in RPMI-1640 in the presence of 10% homologous plasma at 37° C. All cells were incubated at 37° C. in 5% C02. Cells in exponential growth were used.” left out
as §4, §3

PC-3 cells [8] = experiment: Block of mitosis, morphology by microscopy; format: cell-based, human; set-up: key to Block of Mitosis: +Block of mitosis was observed; −no mitotic blocking
Procedure: as §1, §2

SP cells [9] = experiment: Block of mitosis, morphology by microscopy; format: cell-based, human; set-up: key to Block of Mitosis: +Block of mitosis was observed; −no mitotic blocking
Procedure: as §1, §2

For `NC(=O)NC(=O)c1cccc(NC(=O)CBr)c1` [Compound 8, 3-Bromoacetoamido, benzoylurea], the “Block of Mitosis” value ([1]; Normal human PBL (non-tumor), 37° C. for 48 hr) was “−”, the morphologic effect ([1]; normal human lymphocytes, 2 μg/ml, 24 hr at 37° C.) was “no effect” and the “Block of Mitosis” value (B16 mouse melanoma [2]; B16, Murine melanoma, 37° C. for 48 hr) was “+”. The morphologic effect (B16 mouse melanoma [2]; murine melanoma cells, 0.25 μg/ml, 24 hr at 37° C.) was “induced mitotic arrest”, the “Block of Mitosis” value (MOT myocardial cell line; MOT, Rat myocardiac cells (non-tumor), 37° C. for 48 hr) was “−” and the morphologic effect (MOT myocardial cell line; rat myocardial cells, 1.0 μg/ml, 24 hr at 37° C.) was “no effect”. For the same molecule, the Antimicrotubule ([3]; Continuous Exposure (24 hr; 48 hr in footnote)) was “++++ (++++: >75% cells were affected)”, the Antimicrotubule ([3]; Pulse Exposure (1 hr)) was “++++ (++++: >75% cells were affected)” and the “formation of mitotic spindles, immunofluorescent staining for β-tubulin” value ([3]; mitotic CEM cells arrested by the compound) was “none of them showed positive staining for mitotic spindles or astral microtubules”. For the same molecule, the “Survival IL %” value (L1210 Leukemia; 20 mg/kg ip on days 2 & 8) was 44%, the “Survival Mean ± SD” value (L1210 Leukemia; 20 mg/kg ip on days 2 & 8, control 16.5 ± 1.4) was 23.7 ± 4.4 and the ID90 (PC-3 cells [4]) was 0.95 ± 0.17 µg/mL (≈ 3.17 µM). For the same molecule, the ID90 (B16 mouse melanoma [5]) was 0.76 ± 0.09 µg/mL (≈ 2.53 µM), the ID90 [6] was 0.02 ± 0.004 µg/mL (≈ 0.0666 µM) and the ID90 (SP cells [7]) was 0.71 ± 0.11 µg/mL (≈ 2.37 µM). For the same molecule, the “Block of Mitosis” value (PC-3 cells [8]; PC-3, Human Prostate Cancer, 37° C. for 48 hr) was “+”, the morphologic effect (PC-3 cells [8]; PC-3 human prostate cancer cells, 0.1 μg/ml, 24 hr at 37° C.) was “induced mitotic arrest” and the morphologic effect (SP cells [9]; SP human lymphoid leukemic cells, 0.025 μg/ml, 24 hr at 37° C.) was “induced mitotic arrest”. For the same molecule, the “Block of Mitosis” value (SP cells [9]; SP, Human MDS, 37° C. for 48 hr, arrest = mitotic cells >50% vs controls) was “+”.
